Experimental data: BigSolDB 2.1

Nc1ccc(Sc2ccc([N+](=O)[O-])cc2)cc1
Settings | solubility (mole fraction)
in chlorobenzene, 291.25 K | 0.011
in chlorobenzene, 296.55 K | 0.0133
in chlorobenzene, 301.75 K | 0.0174
in chlorobenzene, 306.25 K | 0.019
in chlorobenzene, 311.35 K | 0.0225
in chlorobenzene, 316.65 K | 0.0275
in chlorobenzene, 321.25 K | 0.0314
in chloroform, 288.35 K | 0.0218
in chloroform, 293.55 K | 0.0264
in chloroform, 298.45 K | 0.0307
in chloroform, 303.65 K | 0.0361
in chloroform, 309.25 K | 0.0433
in dichloromethane, 287.45 K | 0.0244
in dichloromethane, 290.95 K | 0.0275
in dichloromethane, 293.75 K | 0.0299
in dichloromethane, 297.15 K | 0.0339
in ethyl acetate, 290.45 K | 0.0511
in ethyl acetate, 295.65 K | 0.0575
in ethyl acetate, 300.45 K | 0.063
in ethyl acetate, 305.65 K | 0.0709
in ethyl acetate, 309.15 K | 0.0766
in ethyl acetate, 313.65 K | 0.0836
in ethyl acetate, 318.25 K | 0.0911
in n-butanol, 292.55 K | 0.0018
in n-butanol, 297.75 K | 0.0024
in n-butanol, 302.65 K | 0.0031
in n-butanol, 307.65 K | 0.004
in n-butanol, 312.35 K | 0.005
in n-butanol, 317.55 K | 0.0061
in n-butanol, 322.25 K | 0.0081
in toluene, 289.75 K | 0.0183
in toluene, 294.55 K | 0.0214
in toluene, 299.65 K | 0.0241
in toluene, 304.75 K | 0.0283
in toluene, 309.35 K | 0.0337
in toluene, 314.55 K | 0.0385
in toluene, 319.35 K | 0.0448
in toluene, 324.65 K | 0.0506
